Laboratory results: patent US20030225049A1, “Method of treatment for increasing the number of NMDA receptors in a mammalian brain” (UNIVERSITE PARIS VI, priority 1998, published 2003)

Key:
Format in all cases: in vivo
[1] = test system: NR1 subunit of the NMDA receptor; assay: Immunohistochemistry of NR1 subunits of NMDA receptors in rat brain after DHEAS treatment; settings: after 5, 20 and 30 days of treatment, 30 mg/kg i.p. twice daily
Description: (§1) Male Wistar rats weighing 200-220 g (IFFA CREDO, Paris) were housed at 21° C. with a standard 12 h light/12 h dark cycle and with food and water being freely available. The animals received intraperitoneal (i.p.) injections of either the vehicle dimethyl sulfoxide (DMSO; 0.2 ml/250 g body weight(b.w.) or dehydroepiandrosterone sulfate (DHEAS; 30 mg/kg b.w. dissolved in DMSO (0.2 ml/250 g b.w)) twice daily, at 8 a.m. and 6 p.m., for a period of either 5, 20 or 30 days. The last injection was given at 8 a.m. of the 5th, 20th or 30th day. All the animals were killed 2 hours after the last injection. Six groups of animals (ten animals per group) were used. Three control groups received DMSO alone for a period of 5, 20 or 30 days respectively, and, in a similar manner, three groups received DHEAS treatment for a period of 5, 20 or 30 days respectively.
(§2) The rats were killed by decapitation and the brains were rapidly removed from the skull, quickly frozen in liquid isopentane at −40° C., and kept at −80° C. until sectioned. The frozen brains were cut into 20 um thick sections in a cryostat (Frigocut 2800, Reichert Jung). […]
(§3) The increase can be quantified by the SCION program developed at the National Institutes of Health (USA). […]

NMDA receptors = assay: Effect of DHEAS treatment on [3H]-MK801-labeled NMDA receptor sites in rat brain (quantitative autoradiography); settings: male Wistar rats, 30 mg/kg i.p. twice daily for 5 days
Text: 1.1 Labeling the NMDA Receptors with the Ligand [^3H]-MK801
The NMDA receptors in the rat brain were labeled by means of the quantitative autoradiography technique, thereby making it possible to visualize and quantify the number of receptors in different regions of the brain.
The radioactive ligand which makes it possible to specifically recognize the sites of the NMDA receptors is tritium-labeled dizocilpine (MK801), i.e. [^3H]-MK801 (Kemp et al. TINS (1987) 294-298).
Male rats (Wistar) weighing between 200 and 220 g were decapitated. Their brains were rapidly removed and placed in liquid isopentane at a temperature of −40° C. The brains were then stored at −80° C. until used.
Brain sections having a thickness of […] were obtained using a Frigocut 2800® cryostat, which is marketed by Reichert Jung.
The brain sections were preincubated in a 50 mM Tris-acetate, pH 7.4, buffer at 4° C. for 30 minutes. They were then dried rapidly at room temperature.
The sections were then incubated with the radioligand [^3H]-MK801, sold by New England Nuclear (Boston, Mass., USA) and having a specific activity of 24 Ci/mmol, at a concentration of 5 nM in the abovementioned buffer at 4° C. for a period of 4 hours.
Control sections were incubated with MK801, which was present at a concentration of 10^−5 M and which was not labeled with tritium, in order to determine non-specific binding.
All the sections were then rinsed for 5 seconds and then for 90 minutes in the same cold buffer.
The sections were dried at room temperature and then exposed on tritium-hyperfilm films (Amersham) at 4° C. in the dark for 4 weeks in autoradiography cassettes.
The films were developed for 2 minutes in a Kodak D19 developer and then fixed in Kodak Rapid fixer and finally rinsed for an hour in running water.
The autoradiographic labeling was quantified by densitometry using the RAG-200 software sold by BIOCOM (Les Ulis, France), and the binding was measured by relative optical density.
30 mg of DHEAS were administered/kg, intraperitoneally and twice daily, to non-castrated male Wistar rats for 5 days. The rats were sacrificed on the 5th day, 30 minutes after the last injection of DHEAS.
The apparent [^3H]-MK801-binding sites are measured by optical density OD for the total specific binding of [^3H]-MK801 in the cortex and different regions of the hippocampus: CA1; CA3; lateral blade of the dentate gyrus, DG1b, and the median blade of the dentate gyrus, DGmb.

[2] = test system: NR2 subunits of NMDA receptors (NMDA R2 A/B); assay: Immunohistochemistry of NR2 subunits of NMDA receptors in rat brain after DHEAS treatment; settings: after 5, 20 and 30 days of treatment, 30 mg/kg i.p. twice daily
Description: as §1, §2, §3

dehydroepiandrosterone sulfate [DHEAS]
number of NR1 subunits (in words) [1]: clear increase | number of [3H]-MK801 sites, OD (NMDA receptors; CA1): 54.01 ± 4.05 | number of [3H]-MK801 sites, OD (NMDA receptors; CA3): 33.37 ± 4.94 | number of [3H]-MK801 sites, OD (NMDA receptors; Cortex): 24.88 ± 2.73 | number of [3H]-MK801 sites, OD (NMDA receptors; DG1b (dentate gyrus, lateral blade)): 42.15 ± 4.31 | number of [3H]-MK801 sites, OD (NMDA receptors; DGmb (dentate gyrus, medial blade)): 43.13 ± 3.53 | NR2 subunits (in words) [2]: slight increase
